Measurements published in patent publication US12350253B2, “Use of cannabinoids in the treatment of dyskinesia associated with parkinson's disease” (Jazz Pharmaceuticals Research UK Limited, priority 2019, dated 2025).
Entries after “also recorded” stand apart in the source; their conditions may differ.

Tests used:
nigral neurons = conditions: various experimental models of PD; cited from earlier work
[1] = tested on: 6-hydroxydopamine rat model of Parkinson's disease; conditions: oral coadministration of L-DOPA and rimonabant; cited from earlier work
Pitx3−/− mice [2] = experiment: Rotarod test (motor coordination); format: in vivo; conditions: THCV co-administered with L-DOPA; after 12 days of daily treatment; vs L-DOPA
Method: (§1) In a first experiment, animals were treated with an i.p. injection of 10 mg/kg of benserazide hydrochloride followed 20 minutes later by a second i.p. injection of 10 mg/kg of L-DOPA methyl ester. Separate groups of animals received equivalent injections with vehicle (saline) used as controls. Both L-DOPA- and vehicle-treated mice received, 10 minutes after the second injection, a third i.p. injection of THCV (2 mg/kg) or vehicle (Tween 80-saline). The same treatment schedule was repeated daily during approximately two weeks.
Motor coordination was tested using a rotarod. The rotarod was set at a constant speed (10 revolutions per minute) and latency to fall from the rod was assessed. Cut off time was 180 seconds. Before testing, mice were previously habituated in one training session, as described previously.

[3] = tested on: established L-DOPA-induced dyskinesia in Pitx3−/− mice; experiment: Established L-DOPA-induced dyskinesia (AIMs), THCV started after about two weeks of L-DOPA; format: in vivo; conditions: 30 min after L-DOPA; for duration of L-DOPA-induced three/four-paw dyskinesia, established dyskinesia: THCV 2 mg/kg from day 14 after 13 days of L-DOPA, vs L-DOPA alone
Method: In a second experiment, benserazide and L-DOPA (and their corresponding vehicles) were administered to mice following the same schedule than in the previous experiment, but THCV, again at the dose of 2 mg/kg, was given for the first time after approximately two weeks of daily benserazide/L-DOPA treatment, with the administration of the three compounds (and vehicles) extending for at least 3 days.
(§2) AIMs were assessed 30 and 60 min after L-DOPA administration. Dyskinesia was scored off-line by a blind rater based on video footage. Ratings were assessed for four minutes at each time point.
(§3) Total dyskinesia was rated by adding the duration in seconds of all three-paw and four-paw dyskinetic bouts. Additionally, on odd days, individual mice were placed in actimeters and motor activity was assessed following drug administration.

FosB = FosB immunostaining in striatum; format: in vivo, mice; conditions: chronic THCV with L-DOPA vs chronic L-DOPA
Method: (§4) Following behavioral analysis, animals were euthanized 1 hour after the last injection of L-DOPA. The brains were post-fixed for 24 h and were then transferred to a solution of 0.1 M phosphate buffer containing 0.02% sodium azide for storage at 4° C. To obtain regular blocks, brains were further immersed in 3% agarose and cut in coronal sections (30 μm thick) using a vibratome.
(§5) Immunostaining was carried out in free-floating sections using a standard avidin-biotin immunocytochemical protocol with the following rabbit antisera: (i) FosB (1:7500), and (ii) anti phospho(Ser10)-acetyl (Lys14)-Hystone 3 (pAcH3; 1:500).
(§6) After incubation with primary antibody (overnight), the sections were washed and incubated with biotinylated secondary anti-rabbit antibody (1:500) for 1 h at room temperature. After washing, the sections were incubated with streptavidin for 1 h and antibody staining was developed using DAB.
For immunostaining quantification in the completely denervated area, we used the Neurolucida software. […]
(§7) Regarding the quantification of FosB and pAcH3 immunoreactivity, it was carried out using an image analysis system.
(§8) For all sides, immunostaining intensity and number of immunolabeled nuclei were determined using five serial rostrocaudal sections per animal and three counting frames (dorsal, dorsolateral and lateral) per section (0.091 mm2 each frame). […]

Pitx3−/− mice [4] = experiment: Locomotor activity (multicage activity meter); format: in vivo
Method: as §1
Horizontal and vertical activities were recorded, using a multicage activity meter system consisting of a set of 8 individual cages measuring 20×20×28 cm. Animals were introduced in the actimeter 60 minutes after L-DOPA injection and were assessed for 30 minutes. Horizontal movement was detected by 2 arrays of 16 infrared beams, whereas a third array positioned 4 cm above the floor detected vertical movement.
The software is capable of differentiating between repetitive interruptions of the same photobeam and interruptions of adjacent photobeams. The latter measure was used as an index of ambulatory activity.

parkinsonian rats = conditions: acute treatment; cited from earlier work
[5] = tested on: phospho(Ser10)-acetyl (Lys14)-Hystone 3 (pAcH3); experiment: pAcH3 immunostaining in striatum; format: in vivo, mice; conditions: chronic THCV with L-DOPA vs chronic L-DOPA
Method: as §4, §5, §6, §7
as §8, with “frame). Images were digitized with Leica microscope under 40× lens. Before counting, images were thresholded at a standardized grey-scale level.” for “frame).”

[6] = tested on: L-DOPA-induced dyskinesia in Pitx3−/− mice; experiment: L-DOPA-induced dyskinesia (AIMs), THCV co-administered daily with L-DOPA; format: in vivo; conditions: for duration of AIMs (three/four-paw dyskinetic movements): vs L-DOPA alone
Method: Pitx3^−/− aphakia mice and their wildtype littermates, were genotyped using PCR amplification analysis of tail-tip DNA extracts. Mice were housed under a 12 h dark/light cycle with free access to food and water. They were used for experimental purposes at the age of 4-6 month-old (24-30 g of weight).
as §1, §2, §3
On Day 14, we evaluated AIMs every 20 min for 160 min after administering L-DOPA to determine the extinction of this response.

[7] = THCV co-administered with L-DOPA, 60 min after L-DOPA, vs L-DOPA

C=C(C)[C@@H]1CCC(C)=C[C@H]1c1c(O)cc(CCCCC)cc1O [CBD, cannabidiol]
protection of nigral neurons from death caused by different insults (nigral neurons): able to protect nigral neurons from death

CCCCCCC(C)(C)c1ccc([C@@H]2C[C@H](O)CC[C@H]2CCCO)c(O)c1 [CP55,940]
protection of nigral neurons from death caused by different insults (nigral neurons): able to protect nigral neurons from death

Cc1c(C(=O)NN2CCCCC2)nn(-c2ccc(Cl)cc2Cl)c1-c1ccc(Cl)cc1 [rimonabant]
abnormal involuntary movements and dystonia [1]: decreased abnormal involuntary movements and dystonia

CCCCC/C=C\C/C=C\C/C=C\C/C=C\CCCC(=O)Nc1ccc(O)cc1 [AM404]
protection of nigral neurons from death caused by different insults (nigral neurons): able to protect nigral neurons from death

CCCc1cc(O)c2c(c1)OC(C)(C)[C@@H]1CCC(C)=C[C@@H]21 [THCV, tetrahydrocannabivarin]
rotarod performance (latency to fall) (Pitx3−/− mice [2]): improved motor coordination in rotarod; also recorded: improved the deteriorated rotarod performance
persistence of the reduction of established dyskinesia ([3]; THCV 2 mg/kg): 3 days
duration of L-DOPA-induced three/four-paw dyskinesia, established dyskinesia [3]: significantly reduced dyskinesia
duration of L-DOPA-induced three/four-paw dyskinesia, established dyskinesia ([3]; listed as Δ9-THCV): active in reducing the duration of L-DOPA-induced three/four-paw dyskinesia
immunostaining intensity of FosB-positive cells in striatum (FosB): attenuates the immunostaining-intensity of FosB positive nuclei; also recorded: reduction affected both the number and the immunostaining intensity
number of FosB-positive cells in striatum (FosB): attenuates the increased expression of FosB-positive cells; also recorded: reduction affected both the number and the immunostaining intensity
horizontal activity (Pitx3−/− mice [4]; THCV alone vs vehicle): no effect on the horizontal activity
vertical activity (Pitx3−/− mice [4]; THCV alone vs vehicle): did elevate vertical activity by itself
horizontal activity (Pitx3−/− mice [4]; [7]): attenuating the elevated horizontal and vertical activities
vertical activity (Pitx3−/− mice [4]; [7]): attenuating the elevated horizontal and vertical activities
motor inhibition (parkinsonian rats): efficacious in reducing motor inhibition
potency in reducing motor inhibition relative to rimonabant (parkinsonian rats): equivalent to rimonabant
immunostaining intensity of pAcH3-positive nuclei in striatum [5]: decreases the intensity of nuclei; also recorded: beneficial effects
number of pAcH3-positive nuclei in striatum [5]: only evident in the intensity of immunostained-nuclei
duration of AIMs (three/four-paw dyskinetic movements) ([6]; 30 min post-L-DOPA, THCV 2 mg/kg i.p. daily with L-DOPA 10 mg/kg i.p., except days 1 and 3): attenuates dyskinesia; also recorded: reduced the duration of AIMs
duration of AIMs (three/four-paw dyskinetic movements) ([6]; 60 min post-L-DOPA, THCV 2 mg/kg i.p. daily with L-DOPA): to a lesser extent; also recorded: significant differences only at days 7 and 13 of treatment
dyskinetic movements with THCV alone ([6]; THCV 2 mg/kg i.p. alone, no L-DOPA): showed no dyskinetic movements
dyskinesias score, acute co-treatment ([6]; day 1 of treatment, 30 min and 60 min, THCV 2 mg/kg with L-DOPA): decreases, but not significantly
time post-treatment up to which difference from L-DOPA alone remained (kinetic profile of AIMs) ([6]; last day of treatment, AIMs every 20 min over 160 min): up to 80 minutes

CCCCCc1cc(O)c2c(c1)OC(C)(C)[C@@H]1CCC(C)=C[C@@H]21 [THC, tetrahydrocannabinol]
protection of nigral neurons from death caused by different insults (nigral neurons): able to protect nigral neurons from death
